One test deals with IMP-1 (Serratia marcescens, UniProt P52699). Nature of the test: biochemical. The class given is biochemical. The following applies: read-out: IMP-1 IC50.
The test system of test [1] is Serratia marcescens expressing IMP-1 (CL5741). Nature of the test: Antibiotic potentiation activity: synergistic concentration (MITC95) with imipenem, OD600 growth. The class given is cell-based. An outline of the steps: (§1)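 Spectrophotometric growth readings were taken following 22–24 h at 35 °C. Before that, organisms in 1.1× CAMHB were mixed with imipenem, used at 4 μg/ml in assay, and test compound.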

Test [2] concerns Escherichia coli expressing NDM-1 (CLB30016). Described as above. The class given is cell-based. Summed up:
as §1

Test [3] concerns Klebsiella pneumoniae expressing VIM-1 (IHMA599644). Described as above. The class given is cell-based. An outline of the steps:
as §1

A further test addresses VIM-1 (Pseudomonas aeruginosa (strain ATCC 15692 / DSM 22644 / CIP 104116 / JCM 14847 / LMG 12228 / 1C / PRS 101 / PAO1), UniProt A0A0F7KYQ8). In words: Enzyme activity: determination of IC50, fluorescence assay with CCF2-FA substrate (VIM-1). The class given is biochemical.
The target of another test is NDM-1 (Klebsiella pneumoniae, UniProt C7C422). In words: biochemical. The class given is biochemical. The following applies: read-out: NDM-1 IC50.
Setting [4] is: IMP-1 enzyme, CCF2-FA fluorescence assay.
Where [5] appears, read: Serratia marcescens expressing IMP-1 (CL5741), 95% growth inhibition.
Setting [6] is: Escherichia coli expressing NDM-1 (CLB30016), 95% growth inhibition.
The mark [7] stands for this setting: Klebsiella pneumoniae expressing VIM-1 (IHMA599644), 95% growth inhibition.
[8] abbreviates: VIM-1 enzyme, CCF2-FA fluorescence assay, read-out: VIM-1 IC50.
[9] abbreviates: NDM-1 enzyme, CCF2-FA fluorescence assay.
Setting [10] is: fluorescence assay with CCF2-FA substrate.
Setting [11] is: concentration giving 95% inhibition of bacterial growth.
Setting [12] is: fluorescence assay with CCF2-FA substrate, read-out: VIM-1 IC50.
The mark [13] stands for this setting: CL5741 (IMP-1), 95% inhibition of bacterial growth.
Where [14] appears, read: CLB30016 (NDM-1), 95% inhibition of bacterial growth.
The mark [15] stands for this setting: IHMA599644 (VIM-1), 95% inhibition of bacterial growth.
The mark [16] stands for this setting: IMP-1 enzyme, CCF2-FA substrate.
Where [17] appears, read: Serratia marcescens CL5741 (IMP-1), 95% growth inhibition.
[18] abbreviates: (CLB30016, NDM-1), 95% growth inhibition.
Setting [19] is: Klebsiella pneumoniae IHMA599644 (VIM-1), 95% growth inhibition.
[20] abbreviates: VIM-1 enzyme, CCF2-FA substrate, read-out: VIM-1 IC50.
Where [21] appears, read: NDM-1 enzyme, CCF2-FA substrate.

Read-outs that look alike come from different tables or passages of the source.

Sequence of NDM-1 (C7C422 whole entry, looked up, species assumed): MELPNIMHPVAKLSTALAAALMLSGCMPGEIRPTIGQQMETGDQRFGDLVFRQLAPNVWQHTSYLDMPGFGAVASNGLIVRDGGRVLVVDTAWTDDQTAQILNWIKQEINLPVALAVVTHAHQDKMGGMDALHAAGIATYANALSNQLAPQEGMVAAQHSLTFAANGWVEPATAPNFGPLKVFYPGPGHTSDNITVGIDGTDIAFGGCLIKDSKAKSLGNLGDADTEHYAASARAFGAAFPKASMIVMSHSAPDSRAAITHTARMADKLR
Sequence of IMP-1 (P52699 whole entry, looked up): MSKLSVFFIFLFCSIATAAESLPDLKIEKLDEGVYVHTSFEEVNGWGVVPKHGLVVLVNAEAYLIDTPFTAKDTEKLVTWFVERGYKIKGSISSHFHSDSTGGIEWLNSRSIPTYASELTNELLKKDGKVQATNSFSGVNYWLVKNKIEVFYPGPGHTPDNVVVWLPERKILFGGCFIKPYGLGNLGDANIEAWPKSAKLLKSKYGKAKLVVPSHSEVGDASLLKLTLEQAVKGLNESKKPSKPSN

On to `NS(=O)(=O)c1cccc(-c2ccc(CNC3CCN(C4CCCC4)CC3)cc2)c1-c1nnn[nH]1` [Example 379, 4′-{[(1-cyclopentylpiperidin-4-yl)amino]methyl}-2-(1H-tetrazol-5-yl)biphenyl-3-sulfonamide], for which the figures for the IC50 on IMP-1 (setting [4]), at VIM-1 (setting [8]) and at NDM-1 (setting [9]) were 318 nM, 639 nM and 27.3 nM, respectively. In addition, in test [1] (setting [5]), the “Serratia marcescens MITC95” value is 4.688 µM. Further, the “Escherichia coli MITC95” value in test [2] (setting [6]) was found to be 1.563 µM. In test [3] (setting [7]), the “Klebsiella pneumoniae MITC95” value turned out to be 200 µM.
For `Nc1ccnc2ccc(-c3cccc(S(N)(=O)=O)c3-c3nnn[nH]3)cc12` [Example 401, 3-(4-amino-6-quinolyl)-2-(1H-tetrazol-5-yl)benzenesulfonamide], the IC50 (as a rule, the concentration that gives 50% inhibition) worked out at 646 nM on IMP-1 (setting [4]); 7.57 nM on VIM-1 (VIM-1 IC50, VIM-1 enzyme, CCF2-FA fluorescence assay); 7.31 nM on NDM-1 (setting [9]). Further, the “Serratia marcescens MITC95” value in test [1] (setting [5]) came out at 6.25 µM. Further, the “Escherichia coli MITC95” value in test [2] (setting [6]) was 0.09375 µM. Further, in test [3] (setting [7]), the “Klebsiella pneumoniae MITC95” value was 0.8906 µM.
Turning to `NS(=O)(=O)c1cccc(Cc2ccccc2)c1-c1nnn[nH]1` [Example 162, 3-benzyl-2-(1H-tetrazol-5-yl)benzenesulfonamide], the IC50 is 571 nM on IMP-1 (setting [10]), 691 nM at VIM-1 (setting [12]) and 18.9 nM on NDM-1 (setting [10]). In addition, the “Serratia marcescens expressing IMP-1 (CL5741) MITC95” value in test [1] (setting [11]) was 12.5 µM. For the same compound, the “Escherichia coli expressing NDM-1 (CLB 30016) MITC95” value in test [2] (setting [11]) came out at 1.563 µM. Further, the “Klebsiella pneumoniae expressing VIM-1 (IHMA 599644) MITC95” value in test [3] (setting [11]) is 200 µM.
For `NCCC1CCC(N2CC(c3ccc(-c4ccc(C(F)(F)F)c(S(N)(=O)=O)c4-c4nnn[nH]4)cc3)C2)CC1` (stereo not drawn) [Example 814, 4′-{1-[4-(2-aminoethyl)cyclohexyl]azetidin-3-yl}-2-(1H-tetrazol-5-yl)-4-(trifluoromethyl)biphenyl-3-sulfonamide], the IC50 on IMP-1 (setting [10]) stood at 12.5 nM; on VIM-1 (setting [12]), 22.5 nM; on NDM-1 (setting [10]), 8.08 nM. Further, the “Serratia marcescens MITC95” value in test [1] (setting [13]) worked out at 6.25 µM. For the same compound, the “Escherichia coli MITC95” value in test [2] (setting [14]) is 6.25 µM. For the same compound, in test [3] (setting [15]), the “Klebsiella pneumoniae MITC95” value came out at 100 µM.
With `CS(=O)(=O)Nc1ccc(-c2ccc(C(F)(F)F)c(S(N)(=O)=O)c2-c2nn[nH]n2)cc1` [Example 274, 4′-(methylsulfonamido)-2-(2H-tetrazol-5-yl)-4-(trifluoromethyl)-[1,1′-biphenyl]-3-sulfonamide], the IC50 at IMP-1 (setting [4]), at VIM-1 (setting [8]) and on NDM-1 (setting [9]) was 0.637 nM throughout. Also, the “Serratia marcescens MITC95” value in test [1] (setting [5]) is 0.1953 µM. For the same compound, the “Escherichia coli MITC95” value in test [2] (setting [6]) turned out to be 0.7813 µM. The “Klebsiella pneumoniae MITC95” value in test [3] (setting [7]) was 4.688 µM.
Consider `NCCc1ccc(-c2ccc(C(F)(F)F)c(S(N)(=O)=O)c2-c2nnn[nH]2)cc1` [Example 707, 4′-(2-aminoethyl)-2-(1H-tetrazol-5-yl)-4-(trifluoromethyl)biphenyl-3-sulfonamide], for which the IC50 at IMP-1 (setting [16]) was found to be 6.67 nM; at VIM-1 (setting [20]) it was 0.249 nM; at NDM-1 (setting [21]) it was 5.59 nM. For the same compound, the “Serratia marcescens MITC95” value in test [1] (setting [17]) was 6.25 µM. Besides, the “Escherichia coli MITC95” value in test [2] (setting [18]) amounted to 3.125 µM. In addition, the “Klebsiella pneumoniae MITC95” value in test [3] (setting [19]) came out at 1.563 µM.
As for `NS(=O)(=O)c1c(CC[C@H]2CC[C@@H](N)CC2)ccc(-c2ccc(C3CCNCC3)cc2)c1-c1nn[nH]n1` [Example 462, 4-(2-((1s,4r)-4-aminocyclohexyl)ethyl)-4′-(piperidin-4-yl)-2-(2H-tetrazol-5-yl)-[1,1′-biphenyl]-3-sulfonamide], the results for the IC50 on IMP-1 (setting [4]), on VIM-1 (setting [8]) and on NDM-1 (setting [9]) were 11.5 nM, 8.13 nM and 3.8 nM, respectively. Besides, the “Serratia marcescens MITC95” value in test [1] (setting [5]) was 1.563 µM. In addition, the “Escherichia coli MITC95” value in test [2] (setting [6]) was 0.7813 µM. Also, the “Klebsiella pneumoniae MITC95” value in test [3] (setting [7]) was determined as 18.75 µM.
`NC[C@H]1CC[C@H](c2ccc(CC3CCNCC3)c(S(N)(=O)=O)c2-c2nn[nH]n2)CC1` [Example 590, 3-((1r,4r)-4-(aminomethyl)cyclohexyl)-6-(piperidin-4-ylmethyl)-2-(2H-tetrazol-5-yl)benzenesulfonamide]: the IC50 is 24.5 nM at IMP-1 (setting [16]), 8.35 nM on VIM-1 (setting [20]) and 8.27 nM at NDM-1 (setting [21]). For the same compound, the “Serratia marcescens MITC95” value in test [1] (setting [17]) came to 2.344 µM. Further, in test [2] (setting [18]), the “Escherichia coli MITC95” value came out at 1.172 µM. Besides, in test [3] (setting [19]), the “Klebsiella pneumoniae MITC95” value is 2.344 µM.
Turning to `N=C(N)c1nc2c(-c3ccc(C(F)(F)F)c(S(N)(=O)=O)c3-c3nnn[nH]3)cccc2s1` [Example 482, 4-(3-Sulfamoyl-2-(1H-tetrazol-5-yl)-4-(trifluoromethyl)phenyl)benzo[d]thiazole-2-carboximidamide], the IC50 was determined as 7.24 nM at IMP-1 (setting [4]), 0.194 nM on VIM-1 (setting [8]) and 0.889 nM at NDM-1 (setting [9]). Besides, the “Serratia marcescens MITC95” value in test [1] (setting [5]) came to 3.125 µM. Further, in test [2] (setting [6]), the “Escherichia coli MITC95” value was 1.563 µM. For the same compound, the “Klebsiella pneumoniae MITC95” value in test [3] (setting [7]) stood at 3.125 µM.
`NS(=O)(=O)c1c(C(F)(F)F)ccc(N2CCC(C3CCNCC3)C2)c1-c1nnn[nH]1` (stereo not drawn) [Example 774, 3-(3-piperidin-4-ylpyrrolidin-1-yl)-2-(1H-tetrazol-5-yl)-6-(trifluoromethyl) benzenesulfonamide]: the IC50 on IMP-1 (setting [10]) is 29.1 nM; at VIM-1 (VIM-1 IC50, fluorescence assay with CCF2-FA substrate), 1.35 nM; at NDM-1 (setting [10]) it was 62.6 nM. Further, the “Serratia marcescens MITC95” value in test [1] (setting [13]) stood at 25 µM. In addition, the “Escherichia coli MITC95” value in test [2] (setting [14]) stood at 25 µM. In addition, the “Klebsiella pneumoniae MITC95” value in test [3] (setting [15]) came out at 6.25 µM.
`NS(=O)(=O)c1c(C(F)(F)F)ccc(-c2ccc(C3CNCCO3)cc2)c1-c1nnn[nH]1` (stereo not drawn) [Example 713, 4′-morpholin-2-yl-2-(1H-tetrazol-5-yl)-4-(trifluoromethyl)biphenyl-3-sulfonamide]: the values for the IC50 on IMP-1 (setting [16]), on VIM-1 (setting [20]) and on NDM-1 (setting [21]) were 3.54 nM, 0.819 nM and 3.27 nM, respectively. Also, the “Serratia marcescens MITC95” value in test [1] (setting [17]) was 6.25 µM. For the same compound, the “Escherichia coli MITC95” value in test [2] (setting [18]) came to 3.125 µM. The “Klebsiella pneumoniae MITC95” value in test [3] (setting [19]) was found to be 3.125 µM.
For the compound `Nc1nc2cccc(-c3ccc(CC4CCNCC4)c(S(N)(=O)=O)c3-c3nn[nH]n3)c2[nH]1` [Example 612, 3-(2-amino-3H-benzo[d]imidazol-4-yl)-6-(piperidin-4-ylmethyl)-2-(2H-tetrazol-5-yl)benzenesulfonamide], the IC50 at IMP-1 (setting [16]) is 65.5 nM; on VIM-1 (setting [20]) it was 7.23 nM; at NDM-1 (setting [21]), 1.63 nM. Moreover, the “Serratia marcescens MITC95” value in test [1] (setting [17]) is 2.563 µM. Further, the “Escherichia coli MITC95” value in test [2] (setting [18]) is 0.5 µM. Besides, the “Klebsiella pneumoniae MITC95” value in test [3] (setting [19]) was 1.281 µM.
Take `NC1CC(N2CCC(c3ccc(-c4ccc(C(F)(F)F)c(S(N)(=O)=O)c4-c4nnn[nH]4)cc3)CC2)C1` (stereo not drawn) [Example 790, 4′-[1-(3-aminocyclobutyl)piperidin-4-yl]-2-(1H-tetrazol-5-yl)-4-(trifluoromethyl)biphenyl-3-sulfonamide]: the half-inhibitory concentration (IC50) came out at 0.871 nM at IMP-1 (setting [10]), 7.26 nM at VIM-1 (setting [12]) and 3.57 nM at NDM-1 (setting [10]). Moreover, in test [1] (setting [13]), the “Serratia marcescens MITC95” value is 3.125 µM. The “Escherichia coli MITC95” value in test [2] (setting [14]) is 0.7813 µM. Further, the “Klebsiella pneumoniae MITC95” value in test [3] (setting [15]) was 12.5 µM.
As to `Nc1cc(-c2cccc(S(N)(=O)=O)c2-c2nn[nH]n2)cnc1N` [Example 523, 3-(5,6-Diaminopyridin-3-yl)-2-(2H-tetrazol-5-yl)benzenesulfonamide], the IC50 at IMP-1 (setting [16]) was determined as 1210 nM; on VIM-1 (setting [20]), 226 nM; at NDM-1 (setting [21]) it was 20.2 nM. Also, in test [1] (setting [17]), the “Serratia marcescens MITC95” value was found to be 9.375 µM. Moreover, the “Escherichia coli MITC95” value in test [2] (setting [18]) was found to be 0.125 µM. For the same compound, the “Klebsiella pneumoniae MITC95” value in test [3] (setting [19]) turned out to be 4.125 µM.

The record behind these values is US9708336B2, “Metallo-beta-lactamase inhibitors” (priority 2014, dated 2017).
